The source of these data is US20230304010A1, “COMPOSITIONS AND METHODS FOR TREATING VIRAL INFECTIONS” (priority 2020, published 2023).

The target in data set [1] is ACE2:SARS-CoV-2 Spike interaction (UniProt P0DTC2+Q9BYF1). Kind of data set: biochemical. In kind it is binding. Conditions: for IC50: ACE2:SARS-CoV-2 Spike IC50.
The nature of another data set: in vitro. The note with it: uninfected Vero E6 cells.
Data set [2] can be described thus: Nanoparticle formation of peptides with ADGN-106: mean size and polydispersity (Zetasizer). The class given is physicochemical. Conditions: 25° C.; for Mean Size (nm): peptide/ADGN-106 complexes; for PI: polydispersity index of peptide/ADGN-106 complexes. The text has this:
We then tested the ability of the different peptides to form nanoparticle organization in the presence of ADGN-106 or ADGN-100 peptide. […] Peptides were complexed with 5 or 10 molar excess of ADGN-106.

Data set [3] concerns the target SARS-CoV-2 Spike: ACE2 interaction (UniProt P0DTC2+Q9BYF1). The data set is described as follows: biochemical. In kind it is binding. Conditions: for IC50: SARS-CoV-2 Spike:ACE2 IC50.
For data set [4], the system named is SARS-CoV-2 Nucleocapsid gene. In kind it is cell-based.

Ends that are not written are not given here.

ACE2:SARS-CoV-2 Spike interaction, sequence (Q9BYF1 18-740, one chain of several): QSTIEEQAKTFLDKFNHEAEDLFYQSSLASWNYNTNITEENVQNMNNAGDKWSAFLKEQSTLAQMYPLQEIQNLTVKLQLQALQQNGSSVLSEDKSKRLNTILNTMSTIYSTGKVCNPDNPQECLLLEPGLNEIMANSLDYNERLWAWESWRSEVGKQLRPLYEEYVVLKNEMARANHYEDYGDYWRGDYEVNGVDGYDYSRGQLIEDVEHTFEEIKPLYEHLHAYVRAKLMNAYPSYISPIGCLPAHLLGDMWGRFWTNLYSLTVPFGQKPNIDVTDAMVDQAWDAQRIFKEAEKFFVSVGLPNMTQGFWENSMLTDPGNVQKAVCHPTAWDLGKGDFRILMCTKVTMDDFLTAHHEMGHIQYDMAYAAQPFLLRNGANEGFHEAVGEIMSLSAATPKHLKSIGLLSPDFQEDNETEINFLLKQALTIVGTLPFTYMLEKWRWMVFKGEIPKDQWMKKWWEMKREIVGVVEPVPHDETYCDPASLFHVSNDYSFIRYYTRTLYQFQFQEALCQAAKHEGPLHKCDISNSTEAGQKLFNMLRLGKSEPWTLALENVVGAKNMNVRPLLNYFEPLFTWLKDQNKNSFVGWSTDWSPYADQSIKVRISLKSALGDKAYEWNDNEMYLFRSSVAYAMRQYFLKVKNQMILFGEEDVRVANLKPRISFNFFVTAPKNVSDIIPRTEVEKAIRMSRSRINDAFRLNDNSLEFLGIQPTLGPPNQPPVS
SARS-CoV-2 Spike: ACE2 interaction, sequence (Q9BYF1 18-740, one chain of several): as above

With `CC(=O)N[C@@H](Cc1ccc(O)cc1)C(=O)N[C@@H](Cc1ccccc1)C(=O)N1CCC[C@H]1C(=O)N[C@@H](CC(C)C)C(=O)N[C@@H](CCC(N)=O)C(=O)N[C@@H](CO)C(=O)N[C@@H](Cc1ccc(O)cc1)C(=O)NCC(=O)N[C@@H](Cc1ccccc1)C(=O)N[C@@H](CCC(N)=O)C(=O)N1CCC[C@H]1C(=O)N[C@H](C(=O)N[C@@H](CC(N)=O)C(=O)NCC(=O)N[C@H](C(=O)NCC(=O)N[C@@H](Cc1ccc(O)cc1)C(=O)N[C@@H](CCC(N)=O)C(=O)NCCCCC(=O)N[C@@H](CC(C)C)C(=O)N[C@@H](Cc1c[nH]c2ccccc12)C(=O)N[C@@H](CCCNC(=N)N)C(=O)N[C@@H](C)C(=O)N[C@@H](CC(C)C)C(=O)N[C@@H](Cc1c[nH]c2ccccc12)C(=O)N[C@@H](CCCNC(=N)N)C(=O)N[C@@H](CC(C)C)C(=O)N[C@@H](Cc1c[nH]c2ccccc12)C(=O)N[C@@H](CCCNC(=N)N)C(=O)N[C@@H](CO)C(=O)N[C@@H](CC(C)C)C(=O)N[C@@H](Cc1c[nH]c2ccccc12)C(=O)N[C@@H](CCCNC(=N)N)C(=O)N[C@@H](CC(C)C)C(=O)N[C@@H](CC(C)C)C(=O)N[C@@H](Cc1c[nH]c2ccccc12)C(=O)N[C@@H](CCCCN)C(N)=O)C(C)C)[C@@H](C)O` [Seq19], in data set [1], the “blocked ACE2:SARS-CoV-2 Spike interaction” value is given as “blocked” and 0.349 ± 0.026 µM corresponded to half-maximal inhibition (IC50). In the data set on SARS-CoV-2, the “Residual Infection (%)” value is 90%. In the data set “in vitro”, this compound showed a viability at 0.5 µM of 87%. Further, in data set [2], the “Mean Size (nm)” value was 37.2 ± 5 nm and the PI came to 0.24. In data set [3], the “blocked SARS-CoV-2 Spike: ACE2 interaction” value is reported as “blocked” and the midpoint of inhibition, the IC50, lay at 0.0906 µM.
For “Ac-KTFLDKFNHEAEDLFPGPKWSAFLKEQSTLAQMYG [Seq28]”, in data set [1], the “folds more potent than SBP-1-ADGN-106/ADGN-106 complex” value stood at 6 folds, the “folds more potent than SBP-1 coupled to ADGN-106” value came to 6 folds, the “folds more potent than SBP-1 peptide/ADGN-106 complex” value was determined as 40 folds and the “folds more potent than free SBP-1” value is 15 folds. For the same compound, in the data set on SARS-CoV-2, the “Residual Infection (%)” value is listed as 10%, the “fold stronger anti-SARS-CoV-2 activity than hydroxychloroquine sulfate” value was found to be 250 fold, the “increase of potency by pre-incubation with SARS CoV-2 prior infection” value is given as 2 factor and the “inhibition of viral infection” value is listed as “exhibit inhibition of viral infection”. Also, in “in vitro”, the CC50 is 290 ± 51 µM and the viability at 0.5 µM came out at 78%. Moreover, in data set [2], the “Mean Size (nm)” value amounted to 34.6 ± 7 nm and the PI is 0.18. In addition, in data set [3], the “folds more potent than SBP-1-ADGN-106/ADGN-106 complex” value is 4 folds, the “folds more potent than SBP-1 coupled to ADGN-106” value is 3.5 folds, the “folds more potent than SBP-1 peptide/ADGN-106 complex” value came to 35 folds and the “folds more potent than free SBP-1” value amounted to 7 folds.
Regarding “GCAGACGTGGTCCAGAACAAA (chemistry not given here) [DIVC-7]”, the IC50 in data set [4] is 0.147 µM.
Still for that read-out and setting: then “AAGCATATTGACGCATACAAA (chemistry not given here) [DIVC-9]”, with 0.394 µM; and “GGCTGATGAAACTCAAGCCTT (chemistry not given here) [DIVC-5]”, with over 0.5 µM; and “GCAACTGAGGGAGCCTTGAAT (chemistry not given here) [DIVC-1]”, with over 0.5 µM.
The same measure, in the same setting: then “GACTTCCCTATGGTGCTAACA (chemistry not given here) [DIVC-4]”, with 0.254 µM.
Consider `CSCC[C@H](NC(=O)[C@H](CCC(N)=O)NC(=O)[C@H](C)NC(=O)[C@H](CC(C)C)NC(=O)[C@@H](NC(=O)[C@H](CO)NC(=O)[C@H](CCC(N)=O)NC(=O)[C@H](CCC(=O)O)NC(=O)[C@H](CCCCN)NC(=O)[C@H](CC(C)C)NC(=O)[C@H](Cc1ccccc1)NC(=O)[C@H](C)NC(=O)[C@H](CO)NC(=O)[C@H](Cc1c[nH]c2ccccc12)NC(=O)[C@H](CCCCN)NC(=O)[C@@H]1CCCN1C(=O)[C@H](Cc1ccccc1)NC(=O)[C@H](CC(C)C)NC(=O)[C@H](CC(=O)O)NC(=O)[C@H](CCC(=O)O)NC(=O)[C@H](C)NC(=O)[C@H](CCC(=O)O)NC(=O)[C@H](Cc1c[nH]cn1)NC(=O)[C@H](CC(N)=O)NC(=O)[C@H](Cc1ccccc1)NC(=O)[C@H](CCCCN)NC(=O)[C@H](CC(=O)O)NC(=O)[C@H](CC(C)C)NC(=O)[C@H](Cc1ccccc1)NC(=O)[C@@H](NC(=O)[C@H](CCCCN)NC(C)=O)[C@@H](C)O)[C@@H](C)O)C(=O)N[C@@H](Cc1ccc(O)cc1)C(=O)NCC(=O)NCCCCCC(=O)N[C@@H](CC(C)C)C(=O)N[C@@H](Cc1c[nH]c2ccccc12)C(=O)N[C@@H](CCCNC(=N)N)C(=O)N[C@@H](C)C(=O)N[C@@H](CC(C)C)C(=O)N[C@@H](Cc1c[nH]c2ccccc12)C(=O)N[C@@H](CCCNC(=N)N)C(=O)N[C@@H](CC(C)C)C(=O)N[C@@H](Cc1c[nH]c2ccccc12)C(=O)N[C@@H](CCCNC(=N)N)C(=O)N[C@@H](CO)C(=O)N[C@@H](CC(C)C)C(=O)N[C@@H](Cc1c[nH]c2ccccc12)C(=O)N[C@@H](CCCNC(=N)N)C(=O)N[C@@H](CC(C)C)C(=O)N[C@@H](CC(C)C)C(=O)N[C@@H](Cc1c[nH]c2ccccc12)C(=O)N[C@@H](CCCCN)C(N)=O` [Seq40], for which, in data set [1], the “increase of potency/efficiency by covalent coupling to ADGN peptide” value turned out to be 1.4 folds and the IC50 was found to be 0.0854 ± 0.012 µM. Besides, in data set [2], the “Mean Size (nm)” value turned out to be 54.5 ± 14 nm and the PI came out at 0.31. The same compound displayed an IC50 in data set [3] of 0.0451 µM.
“GACCAGGAACTAATCAGACAA (chemistry not given here) [DIVC-2]” returned an IC50 in data set [4] of over 0.5 µM.
`CC(C)C[C@H](NC(=O)[C@H](C)NC(=O)[C@H](CCCNC(=N)N)NC(=O)[C@H](Cc1c[nH]c2ccccc12)NC(=O)[C@@H](N)CC(C)C)C(=O)N[C@@H](Cc1c[nH]c2ccccc12)C(=O)N[C@@H](CCCNC(=N)N)C(=O)N[C@@H](CC(C)C)C(=O)N[C@@H](Cc1c[nH]c2ccccc12)C(=O)N[C@@H](CCCNC(=N)N)C(=O)N[C@@H](CO)C(=O)N[C@@H](CC(C)C)C(=O)N[C@@H](Cc1c[nH]c2ccccc12)C(=O)N[C@@H](CCCNC(=N)N)C(=O)N[C@@H](CC(C)C)C(=O)N[C@@H](CC(C)C)C(=O)N[C@@H](Cc1c[nH]c2ccccc12)C(=O)N[C@@H](CCCCN)C(=O)O` [ADGN-106, reference compound]: in the data set “in vitro”, the CC50 was determined as 356 ± 64 µM and the viability at 0.5 µM was 84%.
With `CC(=O)N[C@@H](CCCCN)C(=O)N[C@H](C(=O)N[C@@H](Cc1ccccc1)C(=O)N[C@@H](CC(C)C)C(=O)N[C@@H](CC(=O)O)C(=O)N[C@@H](CCCCN)C(=O)N[C@@H](Cc1ccccc1)C(=O)N[C@@H](CC(N)=O)C(=O)N[C@@H](Cc1c[nH]cn1)C(=O)N[C@@H](CCC(=O)O)C(=O)N[C@@H](C)C(=O)N[C@@H](CCC(=O)O)C(=O)N[C@@H](CC(=O)O)C(=O)N[C@@H](CC(C)C)C(=O)N[C@@H](Cc1ccccc1)C(=O)NCCCCCC(=O)N[C@@H](CC(C)C)C(=O)N[C@@H](Cc1c[nH]c2ccccc12)C(=O)N[C@@H](CCCNC(=N)N)C(=O)N[C@@H](C)C(=O)N[C@@H](CC(C)C)C(=O)N[C@@H](Cc1c[nH]c2ccccc12)C(=O)N[C@@H](CCCNC(=N)N)C(=O)N[C@@H](CC(C)C)C(=O)N[C@@H](Cc1c[nH]c2ccccc12)C(=O)N[C@@H](CCCNC(=N)N)C(=O)N[C@@H](CO)C(=O)N[C@@H](CC(C)C)C(=O)N[C@@H](Cc1c[nH]c2ccccc12)C(=O)N[C@@H](CCCNC(=N)N)C(=O)N[C@@H](CC(C)C)C(=O)N[C@@H](CC(C)C)C(=O)N[C@@H](Cc1c[nH]c2ccccc12)C(=O)N[C@@H](CCCCN)C(N)=O)[C@@H](C)O` [Seq34], the IC50 in data set [1] and in data set [3] was over 1 µM throughout. Also, the “Residual Infection (%)” value in the data set on SARS-CoV-2 is listed as 100%. The viability at 0.5 µM in “in vitro” was 98%.
As to `CC(=O)N[C@@H](CCCCN)C(=O)N[C@H](C(=O)N[C@@H](Cc1ccccc1)C(=O)N[C@@H](CC(C)C)C(=O)N[C@@H](CC(=O)O)C(=O)N[C@@H](CCCCN)C(=O)N[C@@H](Cc1ccccc1)C(=O)N[C@@H](CC(N)=O)C(=O)N[C@@H](Cc1c[nH]cn1)C(=O)N[C@@H](CCC(=O)O)C(=O)N[C@@H](C)C(=O)N[C@@H](CCC(=O)O)C(=O)N[C@@H](CC(=O)O)C(=O)N[C@@H](CC(C)C)C(=O)N[C@@H](Cc1ccccc1)C(=O)N[C@@H](Cc1ccc(O)cc1)C(=O)N[C@@H](CO)C(=O)NCCCCCC(=O)N[C@@H](CC(C)C)C(=O)N[C@@H](Cc1c[nH]c2ccccc12)C(=O)N[C@@H](CCCNC(=N)N)C(=O)N[C@@H](C)C(=O)N[C@@H](CC(C)C)C(=O)N[C@@H](Cc1c[nH]c2ccccc12)C(=O)N[C@@H](CCCNC(=N)N)C(=O)N[C@@H](CC(C)C)C(=O)N[C@@H](Cc1c[nH]c2ccccc12)C(=O)N[C@@H](CCCNC(=N)N)C(=O)N[C@@H](CO)C(=O)N[C@@H](CC(C)C)C(=O)N[C@@H](Cc1c[nH]c2ccccc12)C(=O)N[C@@H](CCCNC(=N)N)C(=O)N[C@@H](CC(C)C)C(=O)N[C@@H](CC(C)C)C(=O)N[C@@H](Cc1c[nH]c2ccccc12)C(=O)N[C@@H](CCCCN)C(N)=O)[C@@H](C)O` [Seq35], 0.728 µM corresponded to half-maximal inhibition in data set [1] (IC50). Further, in data set [2], the “Mean Size (nm)” value is reported as 44 ± 10 nm and the PI worked out at 0.22. For the same compound, half-maximal inhibition in data set [3] (IC50) was put at 0.546 µM.
Take “GCAACAATCCATGAGCAGTGC (chemistry not given here) [DIVC-10]”: half-maximal inhibition in data set [4] (IC50) was put at 0.0284 µM.

For orientation: IC50 means the point on the concentration scale where inhibition reaches its midpoint. Higher therefore signals lower potency. As a reminder, the viability is the share of living cells, or the viability signal relative to a control. Low values mean more harm to the cells, high ones less harm to the cells. By CC50 is commonly meant the concentration that lowers cell viability or growth by half.
